Reference: paper PMC10011747, “Targeting androgen receptor and the variants by an orally bioavailable Proteolysis Targeting Chimeras compound in castration resistant prostate cancer” (eBioMedicine, 2023)
Read-outs that look alike come from different tables or passages of the source.

Molecular target: T1, AR-V7 (Homo sapiens, UniProt P10275)
T1 construct: endogenous in cells; host or cells: CWR22Rv1, VCaP
T1 sequence (P10275 1-644 isoform P10275-3): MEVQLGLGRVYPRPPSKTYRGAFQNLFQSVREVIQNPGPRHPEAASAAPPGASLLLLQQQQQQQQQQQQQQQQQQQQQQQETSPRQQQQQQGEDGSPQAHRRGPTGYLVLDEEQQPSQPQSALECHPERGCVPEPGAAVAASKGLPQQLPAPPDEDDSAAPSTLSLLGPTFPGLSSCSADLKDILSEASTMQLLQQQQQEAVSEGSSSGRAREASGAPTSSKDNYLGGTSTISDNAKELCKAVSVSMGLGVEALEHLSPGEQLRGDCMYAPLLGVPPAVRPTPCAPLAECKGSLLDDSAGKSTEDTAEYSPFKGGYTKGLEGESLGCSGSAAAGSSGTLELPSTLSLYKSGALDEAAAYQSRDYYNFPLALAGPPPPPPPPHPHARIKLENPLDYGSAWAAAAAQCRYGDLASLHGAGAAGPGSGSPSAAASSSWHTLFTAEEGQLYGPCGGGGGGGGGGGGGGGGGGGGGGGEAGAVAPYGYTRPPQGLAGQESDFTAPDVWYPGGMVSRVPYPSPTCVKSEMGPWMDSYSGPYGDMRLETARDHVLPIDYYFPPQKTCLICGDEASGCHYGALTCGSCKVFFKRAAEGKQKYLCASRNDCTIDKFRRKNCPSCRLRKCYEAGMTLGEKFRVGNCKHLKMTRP
Assay: AR-V7 degradation by western blot (AR-V7 specific antibody)
Assay type: cell-based
Details: for DC50: 24 h treatment; for Dmax at 20 µM: maximum degradation at 20 μM
Procedure: To obtain total lysates, cells were lysed in RIPA buffer (50 mM Tris–HCl pH 8.0, 150 mM NaCl, 1% NP-40, 0.5% Na-deoxycholate, 0.5% SDS plus protease inhibitors). The lysates were resolved by SDS-polyacrylamide gel electrophoresis, and the protein expression was analyzed by western blotting using primary antibodies against AR (Millipore Cat# 06-680, RRID:AB_310214), AR-V7 (RevMAb Biosciences Cat# 31-1109-00, RRID:AB_2716436), GAPDH (Cell Signaling Technology Cat# 2118, RRID:AB_561053) and Actin (Sigma–Aldrich Cat# A5441, RRID:AB_476744). pLenti4/TO/Flag-AR or pLenti4/TO/Flag-TC-AR plasmid was co-transfected with HA-ubiquitin plasmid into 293T cells. 24 h after transfection, the cells were treated with 10 μM of the PROTAC compounds for 16 h, followed by 4-h treatment of 5 μM MG132. The cells were lysed with lysis buffer (50 mM Tris–HCl pH7.5, 150 mM NaCl, 0. 5% Triton X-100, 10% glycerol, 1 mM EDTA plus protease inhibitors) containing 1 ng/mL of N-ethylmaleimide, followed by immunoprecipitation with anti-Flag M2 (Sigma–Aldrich Cat# F3165, RRID:AB_259529) antibody. The ubiquitinated AR was then detected by western blotting using anti-HA (Sigma–Aldrich Cat# H3663, RRID:AB_262051) antibody.
Fig. 1 PROTAC-based AR degraders ITRI-90, ITRI-125 and ITRI-126 reduce AR and AR-V7 proteins in prostate cancer cell lines. (a) Chemical structure of the PROTAC AR degraders. (b) Representative western blots of AR protein levels in LNCaP, CWR22Rv1 and VCaP cells treated with the PROTAC degraders for 24 h. AR was detected by N-terminal antibody which also detects C-terminal truncated AR-V(ΔLBD) in CWR22Rv1 cells. AR-V7 specific antibody was used for AR-V7 detection. 4%–12% gradient gel was used to separate different species of AR-V(ΔLBD) near 75 kDa in CWR22Rv1 cell lysates. DC50 indicating the concentration required to achieve 50% degradation, was calculated based on normalized full-length AR and AR-V7 band intensity. Dmax is the maximum degradation achieved at 20 μM compound treatment. TEXT PRINTED IN THE PICTURE: (a) ITRI-90: AR DC50 (μM) LNCaP: 2.12 ± 0.93; AR DC50 (μM) CWR22Rv1: 5.73 ± 2.28; AR DC50 (μM) VCaP: 8.67 ± 4.87; AR-V7 DC50 (μM) CWR22Rv1: 4.72 ± 2.52; AR-V7 DC50 (μM) VCaP: 0.29 ± 0.15; AR Dmax (%) LNCaP: 88; AR Dmax (%) CWR22Rv1: 98; AR Dmax (%) VCaP: 90; AR-V7 Dmax (%) CWR22Rv1: 100; AR-V7 Dmax (%) VCaP: 63 | (a) ITRI-125: AR DC50 (μM) LNCaP: 6.10 ± 4.43; AR DC50 (μM) CWR22Rv1: 6.64 ± 1.87; AR DC50 (μM) VCaP: 9.05 ± 3.75; AR-V7 DC50 (μM) CWR22Rv1: 1.89 ± 1.06; AR-V7 DC50 (μM) VCaP: 0.52 ± 0.37; AR Dmax (%) LNCaP: 71; AR Dmax (%) CWR22Rv1: 96; AR Dmax (%) VCaP: 85; AR-V7 Dmax (%) CWR22Rv1: 99; AR-V7 Dmax (%) VCaP: 67 | (a) ITRI-126: AR DC50 (μM) LNCaP: 3.41 ± 3.13; AR DC50 (μM) CWR22Rv1: 0.11 ± 0.02; AR DC50 (μM) VCaP: 0.851 ± 0.43; AR-V7 DC50 (μM) CWR22Rv1: 0.011 ± 0.003; AR-V7 DC50 (μM) VCaP: 0.43 ± 0.19; AR Dmax (%) LNCaP: 99; AR Dmax (%) CWR22Rv1: 74; AR Dmax (%) VCaP: 94; AR-V7 Dmax (%) CWR22Rv1: 91; AR-V7 Dmax (%) VCaP: 82

[1] = CWR22Rv1 cells, read-out: AR-V7 DC50 CWR22Rv1
[2] = CWR22Rv1 cells, read-out: AR-V7 Dmax CWR22Rv1
[3] = VCaP cells, read-out: AR-V7 DC50 VCaP
[4] = VCaP cells, read-out: AR-V7 Dmax VCaP

| SMILES | DC50 [1] | Dmax at 20 µM [2] | DC50 [3] | Dmax at 20 µM [4] |
| --- | --- | --- | --- | --- |
| Cc1ncsc1-c1ccc(CNC(=O)[C@@H]2C[C@H](O)CN2C(=O)[C@@H](NC(=O)COCCCCOc2ccc(C3CCN(C4=Nn5c(nnc5C(F)(F)F)CC4)CC3)cc2)C(C)(C)C)cc1 [ITRI-90, (2S,4S)-1-((S)-3,3-dimethyl-2-(2-(4-(4-(1-(3-(trifluoromethyl)-7,8-dihydro-[1,2,4]triazolo[4,3-b]pyridazin-6-yl)piperidin-4-yl)phenoxy)butoxy)acetamido)butanoyl)-4-hydroxy-N-(4-(4-methylthiazol-5-yl)benzyl)pyrrolidine-2-carboxamide] | 4720 ± 2520 nM | 100% | 290 ± 150 nM | 63% |
| Cc1ncsc1-c1ccc(CNC(=O)[C@@H]2C[C@H](O)CN2C(=O)[C@@H](NC(=O)COCCCCCCOc2ccc(C3CCN(C4=Nn5c(nnc5C(F)(F)F)CC4)CC3)cc2)C(C)(C)C)cc1 [ITRI-125, (2S,4S)-1-((S)-3,3-dimethyl-2-(2-(6-(4-(1-(3-(trifluoromethyl)-7,8-dihydro-[1,2,4]triazolo[4,3-b]pyridazin-6-yl)piperidin-4-yl)phenoxy)hexyloxy)acetamido)butanoyl)-4-hydroxy-N-(4-(4-methylthiazol-5-yl)benzyl)pyrrolidine-2-carboxamide] | 1890 ± 1060 nM | 99% | 520 ± 370 nM | 67% |
| O=C1CCC(N2Cc3c(NC(=O)COCCCCOc4ccc(C5CCN(C6=Nn7c(nnc7C(F)(F)F)CC6)CC5)cc4)cccc3C2=O)C(=O)N1 (stereo not drawn) [ITRI-126, N-(2-(2,6-dioxopiperidin-3-yl)-1-oxoisoindolin-4-yl)-2-(4-(4-(1-(3-(trifluoromethyl)-7,8-dihydro-[1,2,4]triazolo[4,3-b]pyridazin-6-yl)piperidin-4-yl)phenoxy)butoxy)acetamide] | 11 ± 3 nM | 91% | 430 ± 190 nM | 82% |
